The source of these data is paper PMC4057637, “Efficacy of novel antibacterial compounds targeting histidine kinase YycG protein” (Applied Microbiology and Biotechnology, 2014).

The test system of assay [1] is 24-h biofilms of S. epidermidis ATCC 35984. Description: Rabbit subcutaneous S. epidermidis biofilm infection model. The format is in vivo, New Zealand White rabbits. The conditions noted are these: vancomycin 128 mg/l, local injection at 0, 24, 48 h; 72 h. Here is the method: To test the effectiveness in vivo of H2-74 and H2-81, 24-h biofilms of S. epidermidis grown on polyethylene disks were imbedded subcutaneously into the New Zealand White rabbits and treated with the derivatives for 72 h in a modification of the method used previously (He et al. [2011]). Disks were cut from polyethylene 96-well plates (8 mm diameter, 1 mm thickness), sterilized with 75 % ethanol and placed in a Petri dish (100 mm diameter). An overnight culture of S. epidermidis ATCC 35984 (20 ml) was inoculated into the dish and incubated at 37 °C for 24 h. The disks covered with biofilms were then implanted subcutaneously in female New Zealand White rabbits (2.0–2.5 kg) that had been anesthetized with pentobarbital sodium (5 mg/kg i.v.). Four incisions (10 mm) were made on the back of the rabbit along the spine bilaterally after removal of fur, and the sub cutis was carefully dissected to form a 2-cm × 3-cm cavity. Two biofilm-covered polyethylene disks were implanted into each cavity, and to minimize the effect of between-animal variation, four different treatments were given locally to each rabbit.
Vancomycin (128 mg/l) and 0.1 % DMSO were administered as the controls. Twenty-four hours after the last treatment, the rabbits were euthanized and the implants were taken out with sterile forceps. Biofilms were scraped from the disks, and the viable bacteria were determined by CFU counting, as previously described (He et al. [2011]). All animals were housed and used in compliance with the guidelines of the Institute of Animal Care and Use Committee, and the protocol was approved by the committee.

Assay [2] concerns S. epidermidis ATCC 35984. Put plainly: Derivatives combined with vancomycin or cefazolin (FIC index). The format is cell-based. The conditions noted are these: S. epidermidis ATCC 35984. An excerpt: Combination antimicrobial therapy is widely used to take advantage of different mechanisms of action. It may potentiate the effect of individual antimicrobial agents by synergic action (Bijnsdorp et al. [2011]; Cokol et al. [2011]). The glycopeptide antibiotics, such as vancomycin, can bind the peptidoglycan side chains in the cell wall and prevent cross-linking during cell wall synthesis. Vancomycin has been considered to be one of the most reliable therapeutic agents against staphylococcal infections, but it is unable to clear biofilms even at high concentration (128 mg/l) (Climo et al. [1999]; Darouiche et al. [1994]; Tenover et al. [2001]). […] YycGF also plays an important role in the synthesis of peptidoglycan in B. subtilis and S. aureus (Bisicchia et al. [2007]; Dubrac and Msadek [2004]). In a preliminary study, we assessed the effects of the combined application of the derivatives with vancomycin and cefazolin against S. epidermidis ATCC 35984 according to the method of Odds ([2003]) (Cottagnoud et al. [2003]). […] No antagonism was observed between the derivatives and vancomycin or cefazolin (Table S1).
17 Table S1. The derivatives combined with vancomycin or cefazolin against S. epidermidis
Derivatives Antibiotics MIC (mg/L) FICIa Synergyb
Derivative Antibiotic In combination
alone alone (Derivative/Antibiotic)
19 a The FICI was calculated as FIC indexes= (MICderivative A in combination/MICderivative A
20 alone)+(MICantibiotic B in combination/MIC antibiotic B alone).
21 b The interaction between the two antibacterials is noted as follows: FIC index≤0.5,
22 Synergy (+); 0.5<FIC index≤4 (-), No interaction; FIC≥4.0, Antagonism.

Assay [3] has as its system mature (24-h-old) biofilms of S. epidermidis ATCC 35984. Put plainly: Bacterial viability in mature biofilms by CLSM with Live/Dead staining. The format is cell-based. The note with it: Staphylococcus epidermidis, ATCC35984, 16 h, read-out: proportion of viable cells in mature biofilms. As to the method: A diluted overnight culture of the bacteria was inoculated into cell culture glass bottom dishes (WPI, USA) and incubated at 37 °C for 24 h. […] The biofilms were washed with PBS and stained with SYTO9 and propidium iodide (PI), both of which were used at a concentration of 1 μM. SYTO9-stained live cells and PI-stained cells dead in biofilms were visualized by a Leica TCS SP5 confocal laser scanning microscope with a ×63 1.4-NA oil immersion objective. Three-dimensional biofilm images were created by IMARIS 7.0.0 software (Bitplane).

Take `CN[C@H](CC(C)C)C(=O)N[C@H]1C(=O)N[C@@H](CC(N)=O)C(=O)N[C@H]2C(=O)N[C@H]3C(=O)N[C@H](C(=O)N[C@H](C(=O)O)c4cc(O)cc(O)c4-c4cc3ccc4O)[C@H](O)c3ccc(c(Cl)c3)Oc3cc2cc(c3O[C@@H]2O[C@H](CO)[C@@H](O)[C@H](O)[C@H]2O[C@H]2C[C@](C)(N)[C@H](O)[C@H](C)O2)Oc2ccc(cc2Cl)[C@H]1O` [vancomycin, reference compound]: in assay [1], the “viable bacteria recovered from implanted disks” value turned out to be 5.21 ± 0.24 log10 CFU/cm^2. Also, in assay [2], the “MIC Antibiotic alone” value came out at 4 µg/mL. Further, in assay [3], the viability at 128 µg/mL was determined as 88.6%.

In the case of `Cc1nnc(SCC2=C(C(=O)O)N3C(=O)[C@@H](NC(=O)Cn4cnnn4)[C@H]3SC2)s1` [cefazolin, reference compound], the “MIC Antibiotic alone” value in assay [2] is 8 µg/mL.
